Data reported in ChEMBL document CHEMBL1136663, “Structure-activity relationships studies of the anti-angiogenic activities of linomide” (Bioorg Med Chem Lett, 2003).

Tests used:
[1] = species on record: Gallus gallus; assay: Effective concentration for inhibiting blood vessel formation in the CAM (Chicken chorioallantoic membrane) angiogenesis assay.; assay type: functional
[2] = tested on: HUVEC; assay: Inhibitory concentration against Human umbilical vein endothelial cell (HUVEC) proliferation; assay type: functional, cell-based
[3] = tested on: PC-3; assay: Antiproliferative activity against PC-3 prostate cancer cells; assay type: functional, cell-based; conditions: Homo sapiens

Compound | ED50 [1] [µg embryo-1] | IC50 [2] [µM] | IC50 [3] [µM]
CN(C)C(=O)c1c(O)c2ccccc2n(C)c1=O | 8.5 | 16.5 | > 100
CN(C(=O)c1c(O)nc2ccccc2c1O)c1ccccc1 | 7.5 | 6.55 | > 100
CN(C(=O)c1cc2ccccc2n(C)c1=O)c1ccccc1 | > 100 | – | > 100
O=C(Nc1ccccc1)c1cc2ccccc2nc1O | > 100 | – | > 100
O=C(Nc1ccccc1)c1c(O)nc2ccccc2c1O | 0.87 | 4 | > 100
Cn1c(=O)c(C(=O)Nc2ccccc2)c(O)c2ccccc21 | 18 | 7.2 | > 100
CN(C(=O)c1c(O)c2ccccc2n(C)c1=O)c1ccccc1 [ROQUINIMEX] | 60.1 | 14 | > 100
